For experiment [1], the target named is T1, human TLR8 (wild type sequence) (Homo sapiens, UniProt Q9NR97).
T1 construct: expressed in transfected cells; host or cells: HEK293
T1 sequence (Q9NR97 27-1041): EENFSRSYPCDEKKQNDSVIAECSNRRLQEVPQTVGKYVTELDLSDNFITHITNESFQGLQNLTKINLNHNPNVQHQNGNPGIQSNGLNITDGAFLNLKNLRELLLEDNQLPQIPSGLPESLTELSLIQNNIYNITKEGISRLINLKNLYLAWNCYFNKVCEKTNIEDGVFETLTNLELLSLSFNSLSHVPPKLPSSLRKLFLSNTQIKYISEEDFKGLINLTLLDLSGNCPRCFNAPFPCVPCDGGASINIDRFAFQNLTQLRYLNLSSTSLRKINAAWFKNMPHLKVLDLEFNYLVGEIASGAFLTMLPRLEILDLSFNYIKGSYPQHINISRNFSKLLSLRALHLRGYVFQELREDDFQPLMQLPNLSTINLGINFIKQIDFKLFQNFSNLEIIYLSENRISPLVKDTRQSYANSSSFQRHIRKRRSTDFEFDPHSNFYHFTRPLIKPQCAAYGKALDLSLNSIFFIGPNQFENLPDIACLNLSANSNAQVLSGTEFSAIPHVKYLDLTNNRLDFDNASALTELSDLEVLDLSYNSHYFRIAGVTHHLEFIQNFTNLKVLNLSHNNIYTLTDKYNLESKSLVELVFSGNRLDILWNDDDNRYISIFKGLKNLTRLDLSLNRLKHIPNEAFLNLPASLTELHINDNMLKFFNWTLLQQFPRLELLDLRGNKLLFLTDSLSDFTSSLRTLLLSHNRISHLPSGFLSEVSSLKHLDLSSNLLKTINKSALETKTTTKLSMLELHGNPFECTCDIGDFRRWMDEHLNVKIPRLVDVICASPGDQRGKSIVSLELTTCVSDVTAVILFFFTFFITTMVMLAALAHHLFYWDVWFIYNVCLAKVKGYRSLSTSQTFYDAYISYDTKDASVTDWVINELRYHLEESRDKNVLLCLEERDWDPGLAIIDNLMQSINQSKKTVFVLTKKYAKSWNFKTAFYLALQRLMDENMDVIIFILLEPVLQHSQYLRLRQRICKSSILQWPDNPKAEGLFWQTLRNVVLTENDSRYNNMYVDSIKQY
Nature of the experiment: TLR8 cellular NFκB-luc reporter assay, wild type TLR8. The experiment is classed as cell-based. The arrangement: unit not given here. Particulars: lowest effective concentration, wild type TLR8 (compounds 1-73). A digest of the protocol: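 NFκB-driven luciferase in HEK293 transiently expressing TLR7 or TLR8, wild type or mutant lacking part of the second LRR; 6 h compound exposure; lowest effective concentration reported.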
(In general: A reporter such as luciferase makes a cellular process visible.)

Experiment [2] has as its system human TLR7 mutant sequence comprising a deletion in the second leucine-rich repeat. Nature of the experiment: TLR7 cellular NFκB-luc reporter assay, mutant TLR7 with deletion in the second leucine-rich repeat. Particulars: lowest effective concentration, TLR7 mutant with deletion in second leucine-rich repeat. On the set-up: unit not given here. The experiment is classed as cell-based. A digest of the protocol:
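HEK293 cells transiently co-transfected with CMV-driven mutant TLR7 or TLR8 plasmid plus NFκB-luc reporter, cultured 48 h at 37 °C, then exposed to compound for 6 h at 37 °C, 5% CO2. Luciferase luminescence measured; dose-response curves from quadruplicates.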

For 10 compounds, TLR8-wt_LEC and TLR7-dIRR2_LEC results are on record in patent US11541050B2, “Pyrimidine derivatives for the treatment of viral infections” (JANSSEN SCIENCES IRELAND UC, priority 2011, dated 2023).

In experiment [1], `CCCCNc1nc(N)ncc1OC` [Compound 4] registered a TLR8-wt_LEC of 2.56. In experiment [2], this compound displayed a TLR7-dIRR2_LEC of 1.17.
For the compound `CCCCNc1nc(N)ncc1OCC(C)C` [Compound 31], the TLR8-wt_LEC in experiment [1] stood at 17.53. The TLR7-dIRR2_LEC in experiment [2] is given as 5.27.
For `CCCCCOc1cnc(N)nc1NCCCC` [Compound 32], the TLR8-wt_LEC in experiment [1] worked out at 9.97. The compound further had a TLR7-dIRR2_LEC in experiment [2] of 1.35.
Regarding `CCCCCNc1nc(N)ncc1Oc1ccccc1OC` [Compound 38], the TLR8-wt_LEC in experiment [1] was above 50. In addition, the TLR7-dIRR2_LEC in experiment [2] came to 2.46.
Turning to `CCCCCNc1nc(N)ncc1OC` [Compound 56], the TLR8-wt_LEC in experiment [1] amounted to 5.55. In experiment [2], this compound gave a TLR7-dIRR2_LEC of 0.84.
The compound `CCCCNc1nc(N)ncc1OCc1ccc(-c2ccccc2)cc1` [Compound 58] showed a TLR8-wt_LEC in experiment [1] of 3.84. The compound also registered a TLR7-dIRR2_LEC in experiment [2] of 0.99.
The like results for `CCCCNc1nc(N)ncc1OCC` [Compound 60] were, in that order, 2.08 and 1.38.
For `CCCCCNc1nc(N)ncc1OCC` [Compound 63], the TLR8-wt_LEC in experiment [1] was found to be 6.35. Also, in experiment [2], the TLR7-dIRR2_LEC is 1.79.
The like results for `CCCCNc1nc(N)ncc1Oc1ccccc1OC` [Compound 64] were, in that order, 18.43 and 2.03.
In experiment [1], `CCCCCCNc1nc(N)ncc1OCC` [Compound 70] came in with a TLR8-wt_LEC above 24.59. In experiment [2], this compound gave a TLR7-dIRR2_LEC of 4.96.
